Laboratory results published in patent US20250034149A1, “DIHYDROPYRROLO[3,4C]-PYRAZOLE DERIVATIVES AND THEIR USE IN DIAGNOSIS” (AC IMMUNE SA, priority 2021, published 2025).
pKi: −log10 of the molar value. Counter-ions that a name gives are not always drawn.

Target: T1, PD brain-derived alpha-synuclein aggregates (Homo sapiens, UniProt P37840)
T1 construct: from tissue; host or cells: human PD donor brain tissue, sarkosyl-insoluble fraction
Assay: Micro-radiobinding competition assay for the determination of binding affinity
Conditions: for pKi: compound concentrations 0.05 nM to 2 μM, nonlinear regression, one site model
Procedure: The procedure was adapted from the protocol described in Spillantini et al., 1998. Frozen tissue blocks from PD donors were thawed on ice and homogenized using a glass dounce homogenizer. The homogenate was then centrifuged at 11,000×g (12,700 RPM) in an ultracentrifuge (Beckman, XL100K) for 20 minutes at 4° C. using a pre-cooled 70.1 rotor (Beckman, 342184). Pellets were resuspended in extraction buffer [10 mM Tris —HCl PH 7.4, 10% sucrose, 0.85 mM NaCl, 1% protease inhibitor (Calbiochem 539131), 1 mM EGTA, 1% phosphatase inhibitor (Sigma P5726 and P0044)] and centrifuged at 15,000×g (14,800 RPM, a 70.1 Ti rotor) for 20 minutes at 4° C. Pellets were discarded and sarkosyl (20% stock solution, Sigma L7414) was added to the supernatants to a final concentration of 1% at room temperature for one hour. This solution was then centrifuged at 100,000×g (38,000 RPM, 70.1 Ti rotor) for one hour at 4° C. Pellets containing enriched alpha-synuclein aggregates were resuspended in PBS and stored at −80° C. until use.
PD brain-derived alpha-synuclein aggregates were spotted onto microarray slides. The slides were incubated with tritiated reference alpha-synuclein ligand at 6 nM, 20 nM or 30 nM and the example compounds (non-radiolabelled) at 1 μM and 100 nM. In some cases, the non-radiolabelled example compounds were further assessed for a range of different concentrations, varying from 0.05 nM to 2 μM. After incubation, slides were washed and scanned by a real-time autoradiography system (BeaQuant, ai4R). Quantification of the signal was performed by using the Beamage image analysis software (ai4R). Non-specific signal was determined with an excess of non-radiolabelled reference alpha-synuclein ligand (2 μM) and specific binding was calculated by subtracting the non-specific signal from the total signal. Competition was calculated as percent, where 0% was defined as the specific binding in the presence of vehicle and 100% as the values obtained in the presence of excess of the non-radiolabelled reference alpha-synuclein ligand. Ki values were calculated in GraphPad Prism7 by applying a nonlinear regression curve fit using a one site, specific binding model. All measurements were performed with at least two technical replicates. For compounds tested in more than one experiment, the mean of the replicates or Ki values in independent experiments is reported.
Results: Example compounds were assessed for their potency to compete with the binding of a tritiated reference alpha-synuclein ligand to PD patient brain-derived alpha-synuclein aggregates. Results of the micro-radiobinding competition assay for the example compounds tested are shown in Table 2 as: % competition at 1 μM and 100 nM.

[1] = 100 nM non-radiolabelled example compound, competition over tritiated reference alpha-synuclein ligand (6 nM, 20 nM or 30 nM)
[2] = 1 μM non-radiolabelled example compound, competition over tritiated reference alpha-synuclein ligand (6 nM, 20 nM or 30 nM)

Row | SMILES | Micro-radiobinding competition assay Competition at 100 nM (%) [1] [%] | Micro-radiobinding competition assay Competition at 1 μM (%) (1 μM non-radiolabelled example compound, competition over tritiated reference alpha-synuclein ligand (6 nM, 20 nM or 30 nM), hydrochloride) | inhibition at 0.1 µM [1] [%] | inhibition at 1 µM [2] [%] | pKi
1 | O=C1c2nn(-c3ccc(N4CC[C@@H](F)C4)nc3)cc2CN1c1cccnc1 [Example 1, 2-{6-[(3R)-3-fluoropyrrolidin-1-yl]pyridin-3-yl}-5-(pyridin-3-yl)-2H,4H,5H,6H-pyrrolo[3,4-c]pyrazol-6-one] | – | – | 58 | 86 | 7.08
2 | O=C1c2nn(-c3ccc(N4CC[C@H](F)C4)nc3)cc2CN1c1cccnc1 [Example 2, 2-{6-[(3S)-3-fluoropyrrolidin-1-yl]pyridin-3-yl}-5-(pyridin-3-yl)-2H,4H,5H,6H-pyrrolo[3,4-c]pyrazol-6-one] | – | – | 34 | 80 | 6.94
3 | Cn1cc(N2Cc3cn(-c4ccc(N5CC(F)C5)nc4)nc3C2=O)cn1 [Example 3, 2-(6-(3-fluoroazetidin-1-yl)pyridin-3-yl)-5-(1-methyl-1H-pyrazol-4-yl)-4,5-dihydropyrrolo[3,4-c]pyrazol-6(2H)-one] | – | – | 38 | 89 | 7.27
4 | Cn1cc(N2Cc3cn(-c4ccc(N5CC[C@H](F)C5)nc4)nc3C2=O)cn1 [Example 4, 2-{6-[(3S)-3-fluoropyrrolidin-1-yl]pyridin-3-yl}-5-(1-methyl-1H-pyrazol-4-yl)-2H,4H,5H,6H-pyrrolo[3,4-c]pyrazol-6-one] | – | – | 28 | 75 | –
5 | Cn1cc(N2Cc3cn(-c4ccc(N5CC[C@@H](F)C5)nc4)nc3C2=O)cn1 [Example 5, 2-{6-[(3R)-3-fluoropyrrolidin-1-yl]pyridin-3-yl}-5-(1-methyl-1H-pyrazol-4-yl)-2H,4H,5H,6H-pyrrolo[3,4-c]pyrazol-6-one] | – | – | 74 | 101 | –
6 | COc1cncc(N2Cc3cn(-c4ccc(N5CC[C@H](F)C5)nc4)nc3C2=O)c1 [Example 6, 2-{6-[(3S)-3-fluoropyrrolidin-1-yl]pyridin-3-yl}-5-(5-methoxypyridin-3-yl)-2H,4H,5H,6H-pyrrolo[3,4-c]pyrazol-6-one] | – | – | 26 | 60 | –
7 | COc1cncc(N2Cc3cn(-c4ccc(N5CC[C@@H](F)C5)nc4)nc3C2=O)c1 [Example 7, 2-{6-[(3R)-3-fluoropyrrolidin-1-yl]pyridin-3-yl}-5-(5-methoxypyridin-3-yl)-2H,4H,5H,6H-pyrrolo[3,4-c]pyrazol-6-one] | – | – | 10 | 52 | –
8 | Cc1ccc(N2Cc3cn(-c4ccc(N5CC[C@@H](F)C5)nc4)nc3C2=O)cn1 [Example 8, 2-{6-[(3R)-3-fluoropyrrolidin-1-yl]pyridin-3-yl}-5-(6-methylpyridin-3-yl)-2H,4H,5H,6H-pyrrolo[3,4-c]pyrazol-6-one] | – | – | 37 | 71 | 6.65
9 | Cc1ccc(N2Cc3cn(-c4ccc(N5CC[C@H](F)C5)nc4)nc3C2=O)cn1 [Example 9, 2-{6-[(3S)-3-fluoropyrrolidin-1-yl]pyridin-3-yl}-5-(6-methylpyridin-3-yl)-2H,4H,5H,6H-pyrrolo[3,4-c]pyrazol-6-one] | – | – | 37 | 87 | –
10 | O=C1c2nn(-c3ccc(N4CC[C@@H](F)C4)nc3)nc2CN1c1cccnc1 [Example 10, 2-{6-[(3R)-3-fluoropyrrolidin-1-yl]pyridin-3-yl}-5-(pyridin-3-yl)-2H,4H,5H,6H-pyrrolo[3,4-d][1,2,3]triazol-4-one] | – | – | 74 | 97 | 7.52
11 | O=C1c2nn(-c3ccc(N4CC[C@H](F)C4)nc3)cc2CN1c1cncs1 [Example 11, 2-{6-[(3S)-3-fluoropyrrolidin-1-yl]pyridin-3-yl}-5-(1,3-thiazol-5-yl)-2H,4H,5H,6H-pyrrolo[3,4-c]pyrazol-6-one] | – | – | 41 | 90 | –
12 | O=C1c2nn(-c3ccc(N4CC[C@@H](F)C4)nc3)cc2CN1c1cncs1 [Example 12, 2-{6-[(3R)-3-fluoropyrrolidin-1-yl]pyridin-3-yl}-5-(1,3-thiazol-5-yl)-2H,4H,5H,6H-pyrrolo[3,4-c]pyrazol-6-one] | – | – | 64 | 94 | 7.28

Further lines, results first:

Row | Micro-radiobinding competition assay Competition at 100 nM (%) [1] [%] | Micro-radiobinding competition assay Competition at 1 μM (%) (1 μM non-radiolabelled example compound, competition over tritiated reference alpha-synuclein ligand (6 nM, 20 nM or 30 nM), hydrochloride) | inhibition at 0.1 µM [1] [%] | inhibition at 1 µM [2] [%] | pKi | SMILES
13 | 37 | 87 | – | – | – | Cc1ccc(N2Cc3cn(-c4ccc(N5CCC(F)C5)nc4)nc3C2=O)cn1 (stereo in doubt) [Example 13, 2-{6-[(3S)-3-fluoropyrrolidin-1-yl]pyridin-3-yl}-5-(6-methylpyridin-3-yl)-2H,4H,5H,6H-pyrrolo[3,4-c]pyrazol-6-one hydrochloride]
14 | – | – | 0 | 66 | – | Cn1cc(N2Cc3cn(-c4ccc(N5CCCC(F)CC5)nc4)nc3C2=O)cn1 (centres unmarked) [Example 14, 2-(6-(4-fluoroazepan-1-yl)pyridin-3-yl)-5-(1-methyl-1H-pyrazol-4-yl)-4,5-dihydropyrrolo[3,4-c]pyrazol-6(2H)-one hydrochloride]
15 | – | – | 71 | 92 | – | Cc1ncc(N2Cc3cn(-c4ccc(N5CC[C@@H](F)C5)nc4)nc3C2=O)s1 [Example 15, (R)-2-(6-(3-fluoropyrrolidin-1-yl)pyridin-3-yl)-5-(2-methylthiazol-5-yl)-4,5-dihydropyrrolo[3,4-c]pyrazol-6(2H)-one]
16 | – | – | 69 | 90 | 7.40 | Cc1ncc(N2Cc3cn(-c4ccc(N5CC[C@H](F)C5)nc4)nc3C2=O)s1 [Example 16, (S)-2-(6-(3-fluoropyrrolidin-1-yl)pyridin-3-yl)-5-(2-methylthiazol-5-yl)-4,5-dihydropyrrolo[3,4-c]pyrazol-6(2H)-one]
17 | – | – | 31 | 63 | 6.67 | O=C1c2nn(-c3ccc(OCCF)nc3)cc2CN1c1cccnc1 [Example 17, 2-(6-(2-fluoroethoxy)pyridin-3-yl)-5-(pyridin-3-yl)-4,5-dihydropyrrolo[3,4-c]pyrazol-6 (2H)-one]
18 | – | – | 54 | 81 | 7.11 | Cn1cc(N2Cc3cn(-c4ccc(OCCF)nc4)nc3C2=O)cn1 [Example 18, 2-(6-(2-fluoroethoxy)pyridin-3-yl)-5-(1-methyl-1H-pyrazol-4-yl)-4,5-dihydropyrrolo[3,4-c]pyrazol-6(2H)-one]
19 | – | – | 46 | 78 | 7.07 | O=C1c2nn(-c3ccc(OCCF)nc3)cc2CN1c1cncs1 [Example 19, 2-(6-(2-fluoroethoxy)pyridin-3-yl)-5-(thiazol-5-yl)-4,5-dihydropyrrolo [3,4-c]pyrazol-6(2H)-one]
20 | – | – | 55 | 86 | – | Cc1ncc(N2Cc3cn(-c4ccc(OCCF)nc4)nc3C2=O)s1 [Example 20, 2-(6-(2-fluoroethoxy)pyridin-3-yl)-5-(2-methylthiazol-5-yl)-4,5-dihydro-pyrrolo[3,4-c]pyrazol-6(2H)-one]
